Measurements reported in US8541419B2, “Isotopically enriched pyrimidin-5-yl acetic acid derivatives as CRTH2 antagonists” (Actimis Pharmaceuticals, Inc., priority 2008, dated 2013).
Values joined by “and” are separate entries in the source; they are usually repeats but may differ in a detail not shown here. Identical values can stand only once. Marks after values point to notes of the source that are not given here.

How the values were obtained:
CRTH2 = biological target: T1, CRTH2 (Homo sapiens, UniProt Q9Y5Y4); assay: Biological inhibitory activity in vitro
T1 sequence (Q9Y5Y4 1-395): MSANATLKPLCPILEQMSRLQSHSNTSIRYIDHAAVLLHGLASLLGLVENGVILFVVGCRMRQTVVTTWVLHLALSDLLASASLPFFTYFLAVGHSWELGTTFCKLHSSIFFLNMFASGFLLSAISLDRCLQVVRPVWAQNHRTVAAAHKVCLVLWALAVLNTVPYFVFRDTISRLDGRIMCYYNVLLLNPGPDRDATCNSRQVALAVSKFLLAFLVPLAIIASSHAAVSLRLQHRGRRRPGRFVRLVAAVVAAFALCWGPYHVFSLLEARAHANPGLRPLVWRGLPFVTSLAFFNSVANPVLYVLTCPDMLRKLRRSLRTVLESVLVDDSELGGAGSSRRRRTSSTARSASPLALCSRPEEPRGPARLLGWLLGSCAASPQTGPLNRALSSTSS

[1] = Pharmacokinetics and bioavailability in male Han Wistar rats after simultaneous oral administration; assay type: in vivo; design: AUC0-t / AUC0-∞: concentration or dose not given beside the values
Source text: (§1) The pharmacokinetics and bioavailability of [4,6-bis([^2H6]dimethylamino)-2-(4-{[4-(trifluoromethyl)benzoyl]amino}benzyl)pyrimidin-5-yl]acetic acid (1) and [4,6-bisdimethylamino)-2-(4-{[4-(trifluoromethyl)benzoyl]amino}benzyl)pyrimidin-5-yl]acetic acid (“the undeuterated analog”) were compared in male Han Wistar rats after intravenous (“IV”) and oral (“PO”) administration.
(§2) The following additional acronyms and definitions are used in the study: • AUC0-∞—area under the plasma concentration time curve from time 0 to infinity • AUC0-t—area under the plasma concentration time curve from time 0 to the last quantifiable timepoint • AUMC—area under the first moment curve • CL—total plasma clearance • Cmax—maximum plasma concentration • MRT—mean residence time • PEG—polyethylene glycol • t½—elimination half-life • tmax—time of maximum plasma concentration • Vss—steady-state volume of distribution
(§3) Compound 1 (1.02 mg/kg) and the undeuterated analog (1.0 mg/kg) and were administered simultaneously as a solution in PEG 400:ethanol:water (40:10:50) both intravenously and orally (by gavage) to four male rats per dose route. The doses were equivalent on a molar basis. Blood samples were collected serially up to 48 h postdose. […] Noncompartmental pharmacokinetic parameters were calculated and the results compared statistically using paired t-tests, since the simultaneous administration of both compounds allows each rat to serve as its own control.

[2] = Pharmacokinetics in male Han Wistar rats after simultaneous intravenous administration; assay type: in vivo; design: AUC0-t / AUC0-∞: concentration or dose not given beside the values
Source text: as §1, §2, §3

[3] = male, Han Wistar, rat, in vivo, po
[4] = male, Han Wistar, rat, in vivo, iv
[5] = oral, individual rats, listed as H
[6] = IV, individual rats, listed as H

Question: For `[2H]C([2H])([2H])N(c1nc(Cc2ccc(NC(=O)c3ccc(C(F)(F)F)cc3)cc2)nc(N(C([2H])([2H])[2H])C([2H])([2H])[2H])c1CC(=O)O)C([2H])([2H])[2H]` [Compound 1, [4,6-bis([^2H6]dimethylamino)-2-(4-{[4-(trifluoromethyl)benzoyl]amino}benzyl)pyrimidin-5-yl]acetic acid], which “biological inhibitory activity in vitro compared to the undeuterated analog” value (CRTH2) is on record?
Answer: comparable

Question: And the “AUC0-t higher than that of the undeuterated analog” value [1, 3]?
Answer: 71%

Question: What about the “AUC0-∞ higher than that of the undeuterated analog” value [1, 3] of the same molecule?
Answer: 63%

Question: And the “Cmax higher than that of the undeuterated analog” value [1, 3]?
Answer: 42%

Question: What about the “Extrapolated area of AUC0-∞, averaged, of total area” value [1, 3] of the same molecule?
Answer: < 1.5%

Question: What about the tmax ([1]; male, Han Wistar, rat, in vivo, po, 1.02 mg/kg) of the same molecule?
Answer: 1 h

Question: And the MRT ([1]; male, Han Wistar, rat, in vivo, po, 1.02 mg/kg, MRT)?
Answer: 2.61 ± 0.708 h

Question: And the tmax ([1]; male, Han Wistar, rat, in vivo, po, 1.02 mg/kg, tmax)?
Answer: 0.5 h

Question: What about the Bioavailability ([1]; male, Han Wistar, rat, in vivo, po, Bioavailability) of the same molecule?
Answer: 52.5%

Question: What about the “bioavailability relative to the unlabeled drug” value ([1]; rat, in vivo) of the same molecule?
Answer: better bioavailability

Question: And the “plasma concentrations compared with the undeuterated analog” value ([1]; rat, in vivo, po)?
Answer: greater than those of the undeuterated analog

Question: And the “AUC0-∞ higher than that of the undeuterated analog” value [2, 4]?
Answer: 28%

Question: And the “Extrapolated area of AUC0-∞, averaged, of total area” value [2, 4]?
Answer: < 0.15%

Question: And the “clearance as percent of that of the undeuterated analog” value [2, 4]?
Answer: 80%

Question: What about the “clearance relative to the unlabeled drug” value ([2]; rat, in vivo) of the same molecule?
Answer: reduced clearance

Question: And the “plasma concentrations compared with the undeuterated analog” value ([2]; rat, in vivo, iv)?
Answer: greater than those of the undeuterated analog

Question: With `CN(C)c1nc(Cc2ccc(NC(=O)c3ccc(C(F)(F)F)cc3)cc2)nc(N(C)C)c1CC(=O)O` [Undeuterated Analog, reference compound] as the molecule, how does the “Plasma Concentrations” value ([1]; oral, 0.25 h, individual rats) read?
Answer: 959 ng/mL and 308 ng/mL and 1,520 ng/mL and 1,180 ng/mL and 1,910 nM and 614 nM and 3,030 nM and 2,350 nM

Question: What about the “Plasma Concentrations” value ([1]; oral, 0.25 h, mean) of the same molecule?
Answer: 992 ng/mL and 1980 nM

Question: And the “Plasma Concentrations” value ([1]; oral, 0.5 h, individual rats)?
Answer: 1,060 ng/mL and 355 ng/mL and 2,940 ng/mL and 1,590 ng/mL and 2,110 nM and 708 nM and 5,860 nM and 3,170 nM

Question: And the “Plasma Concentrations” value ([1]; oral, 0.5 h, mean)?
Answer: 1,490 ng/mL and 2960 nM

Question: And the “Plasma Concentrations” value ([1]; oral, 1 h, individual rats)?
Answer: 744 ng/mL and 191 ng/mL and 3,180 ng/mL and 1,220 ng/mL and 1,480 nM and 381 nM and 6,340 nM and 2,430 nM

Question: What about the “Plasma Concentrations” value ([1]; oral, 1 h, mean) of the same molecule?
Answer: 1,330 ng/mL and 2660 nM

Question: And the “Plasma Concentrations” value ([1]; oral, 2 h, individual rats)?
Answer: 463 ng/mL and 104 ng/mL and 1,290 ng/mL and 548 ng/mL and 923 nM and 207 nM and 2,570 nM and 1,090 nM

Question: What about the “Plasma Concentrations” value ([1]; oral, 2 h, mean) of the same molecule?
Answer: 601 ng/mL and 1200 nM

Question: What about the “Plasma Concentrations” value ([1]; oral, 4 h, individual rats) of the same molecule?
Answer: 68.4 ng/mL and 32.5 ng/mL and 559 ng/mL and 178 ng/mL and 64.8 nM and 1,120 nM and 355 nM

Question: What about the “Plasma Concentrations” value ([1]; oral, 4 h, mean) of the same molecule?
Answer: 209 ng/mL and 511 nM

Question: What about the “Plasma Concentrations” value ([1]; oral, 6 h, individual rats) of the same molecule?
Answer: 22.0 ng/mL and 24.1 ng/mL and 387 ng/mL and 93.3 ng/mL and 43.9 nM and 48.1 nM and 772 nM and 186 nM

Question: What about the “Plasma Concentrations” value ([1]; oral, 6 h, mean) of the same molecule?
Answer: 132 ng/mL and 262 nM

Question: And the “Plasma Concentrations” value ([1]; oral, 8 h, individual rats)?
Answer: 12.3 ng/mL and 18.7 ng/mL and 217 ng/mL and 76.8 ng/mL and 24.5 nM and 37.3 nM and 433 nM and 153 nM

Question: And the “Plasma Concentrations” value ([1]; oral, 8 h, mean)?
Answer: 81.2 ng/mL and 162 nM

Question: What about the “Plasma Concentrations” value ([1]; oral, 24 h, individual rats) of the same molecule?
Answer: <1.00 ng/mL and 2.99 ng/mL and 2.16 ng/mL and <1.99 nM and 5.96 nM and 4.31 nM

Question: And the “Plasma Concentrations” value ([1]; oral, 24 h, mean)?
Answer: 1.29 ng/mL and 2.57 nM

Question: And the “Plasma Concentrations” value ([1]; oral, 48 h, individual rats)?
Answer: <1.00 ng/mL and 1.57 ng/mL and <1.99 nM and 3.13 nM

Question: What about the “Plasma Concentrations” value ([1]; oral, 48 h, mean) of the same molecule?
Answer: 0.393 ng/mL and 0.783 nM

Question: What about the t1/2 ([1]; oral, harmonic mean N=4, listed as H) of the same molecule?
Answer: 2.39 ± 2.11 h and 2.39^d h

Question: And the AUC0-t [1, 5]?
Answer: 3,880 nM · h and 1,280 nM · h and 19,300 nM · h and 7,820 nM · h

Question: What about the “AUC0-∞” value [1, 5] of the same molecule?
Answer: 3,920 nM · h and 1,550 nM · h and 19,300 nM · h and 7,850 nM · h

Question: What about the Bioavailability [1, 5] of the same molecule?
Answer: 10.3% and 4.06% and 50.5% and 20.6%

Question: What about the CL/F [1, 5] of the same molecule?
Answer: 8.48 mL/min/kg and 21.5 mL/min/kg and 1.72 mL/min/kg and 4.23 mL/min/kg

Question: And the Cmax [1, 5]?
Answer: 2.11 µM and 0.708 µM and 6.34 µM and 3.17 µM

Question: And the MRT [1, 5]?
Answer: 1.40 h and 4.25 h and 3.36 h and 3.47 h

Question: What about the t1/2 [1, 5] of the same molecule?
Answer: 1.10 h and 5.02 h and 2.57 h and 5.63 h

Question: What about the tmax [1, 5] of the same molecule?
Answer: 0.5 h (3×) and 1 h

Question: And the Cmax ([1]; oral, mean N=4)?
Answer: 3.08 µM

Question: What about the AUC0-t ([1]; oral, mean N=4, listed as H) of the same molecule?
Answer: 8,070 ± 7,950 nM · h and 8,070 nM · h

Question: What about the “AUC0-∞” value ([1]; oral, mean N=4, listed as H) of the same molecule?
Answer: 8,160 ± 7,880 nM · h and 8,160 nM · h

Question: What about the Bioavailability ([1]; oral, mean N=4, listed as H) of the same molecule?
Answer: 21.3%

Question: And the CL/F ([1]; oral, mean N=4, listed as H)?
Answer: 8.97^c ± 8.78^ mL/min/kg and 8.97 mL/min/kg

Question: And the MRT ([1]; oral, mean N=4, listed as H)?
Answer: 3.12 ± 1.21 h and 3.12 h

Question: And the Bioavailability ([1]; oral, mean N=4, listed as the undeuterated analog)?
Answer: 45.6%

Question: And the tmax ([1]; oral, median (range) N=4, listed as H)?
Answer: 0.5 (0.5-1.0)^e h and 0.5^a h

Question: What about the “Plasma Concentrations” value ([2]; IV, 8 h, individual rats) of the same molecule?
Answer: 64.0 ng/mL and 173 ng/mL and 88.4 ng/mL and 12.0 ng/mL

Question: What about the “Plasma Concentrations” value ([2]; IV, 8 h, mean) of the same molecule?
Answer: 84.4 ng/mL

Question: What about the “Plasma Concentrations” value ([2]; IV, 24 h, individual rats) of the same molecule?
Answer: 12.0 ng/mL and 4.78 ng/mL and 3.29 ng/mL and <1.00 ng/mL

Question: What about the “Plasma Concentrations” value ([2]; IV, 24 h, mean) of the same molecule?
Answer: 5.02 ng/mL

Question: What about the “Plasma Concentrations” value ([2]; IV, 48 h, individual rats) of the same molecule?
Answer: 1.01 ng/mL

Question: What about the t1/2 ([2]; IV, harmonic mean N=4, listed as H) of the same molecule?
Answer: 3.23 ± 1.99 h and 3.23^b h

Question: And the AUC0-t [2, 6]?
Answer: 14,700 nM · h and 23,300 nM · h and 24,300 nM · h and 9,020 nM · h

Question: And the “AUC0-∞” value [2, 6]?
Answer: 14,700 nM · h and 23,300 nM · h and 24,400 nM · h and 9,090 nM · h

Question: What about the CL [2, 6] of the same molecule?
Answer: 2.25 mL/min/kg and 1.43 mL/min/kg and 1.36 mL/min/kg and 3.66 mL/min/kg

Question: And the MRT [2, 6]?
Answer: 2.43 h and 2.20 h and 1.26 h and 0.569 h

Question: And the Vss [2, 6]?
Answer: 0.328 L/kg and 0.189 L/kg and 0.103 L/kg and 0.125 L/kg

Question: What about the t1/2 [2, 6] of the same molecule?
Answer: 6.68 h and 3.12 h and 3.60 h and 2.03 h

Question: And the CL ([2]; IV, mean N=4, listed as H)?
Answer: 2.17 ± 1.07 mL/min/kg and 2.17 mL/min/kg

Question: What about the MRT ([2]; IV, mean N=4, listed as H) of the same molecule?
Answer: 1.62 ± 0.861 h and 1.62 h

Question: And the Vss ([2]; IV, mean N=4, listed as H)?
Answer: 0.186 ± 0.101 L/kg and 0.186 L/kg
